We go through 25 molecules from US8940742B2, “Heterocyclic compounds and uses thereof” (Infinity Pharmaceuticals, Inc., priority 2012, dated 2015).

Test [1] has as its target T1, PI3K α (Homo sapiens, UniProt P42336).
T1 construct: purchased Millipore
The test is described as follows: PI3-Kinase Promega ADP-Glo Max assay. It is filed as biochemical. Particulars: 20 nM kinase, 3 mM ATP, 500 uM diC8-PtdInsP. An outline of the steps: (§1)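 Human class I PI3K (20 nM α or δ, 40 nM β) pre-incubated 15 min with compound in HEPES pH 7.4 buffer with MgCl2, then reacted 2 h at room temperature with 3 mM ATP and 500 uM diC8-PtdInsP. ADP measured by ADP-Glo Max luminescence; % inhibition fitted to 4-parameter logistic for IC50.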

In test [2] the target is T2, PI3K β (Homo sapiens, UniProt P42338).
T2 construct: purchased Millipore
Description: PI3-Kinase Promega ADP-Glo Max assay. It is filed as biochemical. The conditions noted are these: 40 nM kinase, 3 mM ATP, 500 uM diC8-PtdInsP. An outline of the steps:
as §1
A general note: ADP-Glo turns the ADP formed in a reaction into a luminescent signal.

The target of test [3] is T3, PI3K δ (Homo sapiens, UniProt O00329).
T3 construct: purchased Millipore
Description: PI3-Kinase Promega ADP-Glo Max assay. It is filed as biochemical. The conditions noted are these: 20 nM kinase, 3 mM ATP, 500 uM diC8-PtdInsP. An outline of the steps: as §1

Test [4] addresses T4, PI3K γ (Homo sapiens, UniProt P48736).
T4 construct: purchased Millipore
Description: PI3-Kinase Promega ADP-Glo Max assay. It is filed as biochemical. The conditions noted are these: 40 nM kinase, 3 mM ATP, 500 uM diC8-PtdInsP. An outline of the steps: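 Human class I PI3K reactions ran 2 hours at room temperature, followed by stop solution (40 min) and detection mix (1 hour) before luminescence reading.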

Test [5] concerns the target T5, Raw264.7 p110 γ (Mus musculus, UniProt Q9JHG7).
T5 construct: reduction of phospho-AKT in stimulated RAW 264.7 cells; endogenous in cells; host or cells: RAW264.7 macrophages
Description: Raw264.7 p110 γ cellular assay (phospho-AKT). It is filed as cell-based. Particulars: serum-starved RAW264.7 cells stimulated with C5a. An excerpt:
(b) PI3K-γ Selective Assay
Briefly, serum-starved PAW264.7 cells are stimulated with a known GPCR agonist C5a. […] Cells can be treated with test compounds prior to, simultaneously with, or subsequent to the stimulation by C5a. RAW 264.7 cells respond to the complement component fragment C5a through activation of the C5a receptor, and the C5a receptor activates macrophages and induces cell migration.

The target in test [6] is RAJI p110 δ (Homo sapiens, UniProt O00329). Description: RAJI p110 δ cellular assay (phospho-AKT).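 Also: potency based on lowered phosphorylated AKT in RAJI cells, as a readout of PI3K-δ dependent B-cell receptor signaling.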
Description: (a) PI3K-δ Selective Assay
Reduction of phospho-AKT is indicative of compounds that may inhibit B-cell proliferation and function in certain diseases.

What is called IC50 is the concentration that inhibits the measured activity by half. A high value points to weaker potency.

T2 sequence (P42338 whole entry): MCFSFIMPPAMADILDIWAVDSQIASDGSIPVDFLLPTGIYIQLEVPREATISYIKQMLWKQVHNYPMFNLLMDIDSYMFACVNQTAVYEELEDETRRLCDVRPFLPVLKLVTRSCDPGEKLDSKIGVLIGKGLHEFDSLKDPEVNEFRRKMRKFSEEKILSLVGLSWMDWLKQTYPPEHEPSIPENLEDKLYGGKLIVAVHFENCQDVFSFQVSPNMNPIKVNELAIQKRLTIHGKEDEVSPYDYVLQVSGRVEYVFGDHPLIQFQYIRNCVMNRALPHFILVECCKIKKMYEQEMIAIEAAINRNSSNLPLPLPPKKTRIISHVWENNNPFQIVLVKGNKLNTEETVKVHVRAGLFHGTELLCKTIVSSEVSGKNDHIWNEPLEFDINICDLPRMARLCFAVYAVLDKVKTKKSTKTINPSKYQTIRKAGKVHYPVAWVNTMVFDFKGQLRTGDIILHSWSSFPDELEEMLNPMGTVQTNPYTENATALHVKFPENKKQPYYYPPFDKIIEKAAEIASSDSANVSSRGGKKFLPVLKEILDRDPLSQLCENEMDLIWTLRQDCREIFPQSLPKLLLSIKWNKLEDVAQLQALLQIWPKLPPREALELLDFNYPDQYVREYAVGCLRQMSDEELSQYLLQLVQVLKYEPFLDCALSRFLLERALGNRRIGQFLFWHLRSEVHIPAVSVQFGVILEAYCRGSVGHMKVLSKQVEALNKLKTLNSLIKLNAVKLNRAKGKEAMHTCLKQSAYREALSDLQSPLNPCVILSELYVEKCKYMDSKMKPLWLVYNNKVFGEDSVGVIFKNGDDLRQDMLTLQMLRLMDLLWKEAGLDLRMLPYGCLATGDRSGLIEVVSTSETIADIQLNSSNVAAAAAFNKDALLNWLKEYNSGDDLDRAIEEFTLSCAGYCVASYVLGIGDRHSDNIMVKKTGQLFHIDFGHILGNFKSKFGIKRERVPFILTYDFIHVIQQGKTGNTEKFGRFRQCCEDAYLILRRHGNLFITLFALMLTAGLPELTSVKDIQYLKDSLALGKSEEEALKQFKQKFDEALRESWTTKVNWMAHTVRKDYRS
T2 sequence (P27986 whole entry partner): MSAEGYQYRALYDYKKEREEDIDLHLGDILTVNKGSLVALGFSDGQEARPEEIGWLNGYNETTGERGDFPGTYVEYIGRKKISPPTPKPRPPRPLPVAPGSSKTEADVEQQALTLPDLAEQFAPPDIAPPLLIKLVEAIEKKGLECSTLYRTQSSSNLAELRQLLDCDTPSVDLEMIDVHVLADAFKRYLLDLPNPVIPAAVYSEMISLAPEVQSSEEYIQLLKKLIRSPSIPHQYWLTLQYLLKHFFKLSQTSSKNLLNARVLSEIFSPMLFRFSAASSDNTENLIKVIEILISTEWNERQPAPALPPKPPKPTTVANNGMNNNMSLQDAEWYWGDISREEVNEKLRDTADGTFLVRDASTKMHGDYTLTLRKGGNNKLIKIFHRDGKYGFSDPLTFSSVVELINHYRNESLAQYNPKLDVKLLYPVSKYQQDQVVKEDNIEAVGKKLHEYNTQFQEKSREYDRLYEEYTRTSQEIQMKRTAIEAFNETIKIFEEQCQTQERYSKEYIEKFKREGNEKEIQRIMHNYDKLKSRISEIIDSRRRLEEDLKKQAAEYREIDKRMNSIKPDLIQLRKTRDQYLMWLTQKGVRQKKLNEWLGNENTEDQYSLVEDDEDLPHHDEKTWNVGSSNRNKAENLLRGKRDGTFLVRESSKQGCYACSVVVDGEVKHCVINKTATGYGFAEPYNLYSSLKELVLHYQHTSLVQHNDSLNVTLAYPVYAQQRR
T5 sequence (Q9JHG7 whole entry): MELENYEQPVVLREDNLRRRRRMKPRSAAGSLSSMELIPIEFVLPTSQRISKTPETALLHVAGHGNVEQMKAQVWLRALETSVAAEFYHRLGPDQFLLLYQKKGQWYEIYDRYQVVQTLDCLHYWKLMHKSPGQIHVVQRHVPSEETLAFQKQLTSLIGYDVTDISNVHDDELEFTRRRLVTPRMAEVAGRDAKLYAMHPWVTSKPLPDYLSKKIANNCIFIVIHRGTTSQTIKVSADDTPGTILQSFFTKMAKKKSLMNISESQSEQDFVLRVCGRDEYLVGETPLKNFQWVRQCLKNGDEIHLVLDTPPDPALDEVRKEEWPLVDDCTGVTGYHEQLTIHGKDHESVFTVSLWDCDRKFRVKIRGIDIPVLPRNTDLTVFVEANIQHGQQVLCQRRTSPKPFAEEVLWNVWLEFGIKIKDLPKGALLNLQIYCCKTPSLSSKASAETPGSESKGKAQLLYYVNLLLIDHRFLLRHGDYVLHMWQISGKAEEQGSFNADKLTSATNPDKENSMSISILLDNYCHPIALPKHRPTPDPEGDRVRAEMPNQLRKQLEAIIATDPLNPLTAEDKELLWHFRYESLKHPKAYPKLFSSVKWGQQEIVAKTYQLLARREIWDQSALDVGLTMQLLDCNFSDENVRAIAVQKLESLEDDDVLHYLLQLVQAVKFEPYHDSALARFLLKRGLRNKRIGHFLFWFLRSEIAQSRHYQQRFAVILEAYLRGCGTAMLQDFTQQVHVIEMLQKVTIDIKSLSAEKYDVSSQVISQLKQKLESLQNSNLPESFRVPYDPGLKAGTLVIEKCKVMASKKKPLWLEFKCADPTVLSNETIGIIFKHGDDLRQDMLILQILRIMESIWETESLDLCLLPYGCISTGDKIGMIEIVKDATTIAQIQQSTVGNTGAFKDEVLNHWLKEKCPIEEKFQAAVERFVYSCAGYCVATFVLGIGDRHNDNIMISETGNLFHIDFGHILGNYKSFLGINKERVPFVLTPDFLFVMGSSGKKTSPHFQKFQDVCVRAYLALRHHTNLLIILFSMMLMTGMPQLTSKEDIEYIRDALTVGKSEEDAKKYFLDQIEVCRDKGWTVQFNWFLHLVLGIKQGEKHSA
T3 sequence (O00329 whole entry): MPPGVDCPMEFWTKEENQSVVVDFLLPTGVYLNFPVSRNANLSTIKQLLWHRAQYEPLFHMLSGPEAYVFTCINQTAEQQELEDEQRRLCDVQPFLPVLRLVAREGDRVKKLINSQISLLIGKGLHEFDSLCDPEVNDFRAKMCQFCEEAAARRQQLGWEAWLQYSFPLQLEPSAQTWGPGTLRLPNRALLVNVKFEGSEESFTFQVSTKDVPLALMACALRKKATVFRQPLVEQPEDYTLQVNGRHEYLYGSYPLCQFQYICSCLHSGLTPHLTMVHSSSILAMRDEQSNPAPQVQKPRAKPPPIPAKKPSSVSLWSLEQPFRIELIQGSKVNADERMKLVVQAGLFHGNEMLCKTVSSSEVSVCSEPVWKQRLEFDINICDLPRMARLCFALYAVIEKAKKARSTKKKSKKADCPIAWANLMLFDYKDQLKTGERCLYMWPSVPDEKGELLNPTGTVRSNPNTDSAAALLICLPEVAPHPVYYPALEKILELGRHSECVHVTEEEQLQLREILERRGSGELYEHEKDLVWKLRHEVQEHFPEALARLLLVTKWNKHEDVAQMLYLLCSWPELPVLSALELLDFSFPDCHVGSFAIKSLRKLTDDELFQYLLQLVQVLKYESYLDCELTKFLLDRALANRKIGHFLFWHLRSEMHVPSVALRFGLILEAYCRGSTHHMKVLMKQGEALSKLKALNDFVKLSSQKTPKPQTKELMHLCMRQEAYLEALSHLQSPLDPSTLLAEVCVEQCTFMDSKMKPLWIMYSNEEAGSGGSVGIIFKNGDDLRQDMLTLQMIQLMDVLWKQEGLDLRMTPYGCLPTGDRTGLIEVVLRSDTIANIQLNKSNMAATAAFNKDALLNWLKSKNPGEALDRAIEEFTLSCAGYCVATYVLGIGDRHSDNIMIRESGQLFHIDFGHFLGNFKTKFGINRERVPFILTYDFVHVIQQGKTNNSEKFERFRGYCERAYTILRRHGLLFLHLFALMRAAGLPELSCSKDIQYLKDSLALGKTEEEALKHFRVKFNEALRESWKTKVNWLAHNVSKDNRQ
T3 sequence (P27986 whole entry partner): as the sequence (P27986 whole entry partner) above
Chain of RAJI p110 δ (O00329 whole entry): as the sequence (O00329 whole entry) above
Chain of RAJI p110 δ (P27986 whole entry partner): as the sequence (P27986 whole entry partner) above

With `C[C@H](NC(=O)c1c(N)nn2cccnc12)c1cc2cccc(CO)c2c(=O)n1-c1ccccc1` [Compound 228], the IC50 in test [1] is above 10 µM; in test [2] it was 1 to 10 µM; in test [3], 1 to 10 µM; in test [4], 0.1 to 1 µM; in test [5] it was below 0.1 µM; in test [6], 0.1 to 1 µM.
Take `COc1ccc(-c2cnc(N)c(C(=O)N[C@@H](C)c3cc4cccc(Cl)c4c(=O)n3-c3ccccc3)n2)cc1NS(C)(=O)=O` [Compound 101]: the IC50 was 0.1 to 1 µM in test [1]; 0.1 to 1 µM in test [2]; 1 to 10 µM in test [3]; below 0.1 µM in test [4]; below 0.1 µM in test [5]; below 0.1 µM in test [6].
In the case of `CC(=O)Nc1cccc(-c2cccc3cc([C@H](C)NC(=O)c4c(N)nn5cccnc45)n(-c4ccccc4)c(=O)c23)c1` [Compound 202], the IC50 is 1 to 10 µM in test [1]; above 10 µM in test [2]; 1 to 10 µM in test [3]; 0.1 to 1 µM in test [4]; 0.1 to 1 µM in test [5]; below 0.1 µM in test [6].
With `C[C@H](NC(=O)c1c(N)nn2cccnc12)c1cc2cccc(C#CCCN)c2c(=O)n1-c1ccccc1` [Compound 154], the 50% inhibitory concentration (IC50) lay in the range of 1 to 10 µM in test [1]; 1 to 10 µM in test [2]; 1 to 10 µM in test [3]; 0.1 to 1 µM in test [4]; 0.1 to 1 µM in test [5]; 0.1 to 1 µM in test [6].
Take `COc1ccc(-c2cccc3cc([C@H](C)NC(=O)c4c(N)nn5cccnc45)n(-c4ccccc4)c(=O)c23)cn1` [Compound 223]: the IC50 in test [1] is above 10 µM; in test [2], above 10 µM; in test [3] it was 1 to 10 µM; in test [4], 0.1 to 1 µM; in test [5] it was below 0.1 µM; in test [6], below 0.1 µM.
Turning to `C[C@H](NC(=O)c1cnc2cccnn12)c1cc2cccc(Cl)c2c(=O)n1-c1ccc(F)cc1` [Compound 20], the IC50 in test [1] was 1 to 10 µM; in test [2] it was 1 to 10 µM; in test [3], 1 to 10 µM; in test [4], 1 to 10 µM; in test [5] it was 0.1 to 1 µM; in test [6], below 0.1 µM.
Take `C[C@H](NC(=O)c1c(N)nn2cccnc12)c1cc2cccc(-c3ccccc3)c2c(=O)n1-c1ccccc1` [Compound 115]: the IC50 in test [1] was 1 to 10 µM; in test [2], above 10 µM; in test [3] it was 1 to 10 µM; in test [4] it was 0.1 to 1 µM; in test [5], below 0.1 µM; in test [6], 0.1 to 1 µM.
For the molecule `C[C@H](NC(=O)c1c(N)nn2cccnc12)c1cc2cccc(C(F)(F)F)c2c(=O)n1-c1ccccc1` [Compound 71], the half-maximal inhibitory concentration (IC50) in test [1] was above 10 µM; in test [2], 1 to 10 µM; in test [3], 1 to 10 µM; in test [4], 0.1 to 1 µM; in test [5] it was below 0.1 µM; in test [6], below 0.1 µM.
In the case of `C[C@H](NC(=O)c1c(N)nn2cccnc12)c1cc2cccc(F)c2c(=O)n1-c1ccccc1` [Compound 191], the IC50 in test [1] was 1 to 10 µM; in test [2], 0.1 to 1 µM; in test [3] it was 0.1 to 1 µM; in test [4], below 0.1 µM; in test [5] it was below 0.1 µM; in test [6], below 0.1 µM.
Consider `CC(C)Oc1ccc(-c2cnc(N)c(C(=O)N[C@@H](C)c3cc4cccc(Cl)c4c(=O)n3-c3ccccc3)n2)cc1Cl` [Compound 88], for which the IC50 in test [1] was above 10 µM; in test [2] it was above 10 µM; in test [3], above 10 µM; in test [4] it was 1 to 10 µM; in test [5], 1 to 10 µM; in test [6] it was above 10 µM.
Regarding `CNS(=O)(=O)c1cccc(-c2cnc(N)c(C(=O)N[C@@H](C)c3cc4cccc(Cl)c4c(=O)n3-c3ccccc3)n2)c1` [Compound 83], the IC50 in test [1] is 1 to 10 µM; in test [2], 0.1 to 1 µM; in test [3], 1 to 10 µM; in test [4] it was 0.1 to 1 µM; in test [5] it was below 0.1 µM; in test [6], below 0.1 µM.
`COc1ncc(-c2cccc3cc([C@H](C)NC(=O)c4c(N)nn5cccnc45)n(-c4ccccc4)c(=O)c23)cn1` [Compound 128]: the IC50 in test [1] is 1 to 10 µM; in test [2], 1 to 10 µM; in test [3], 1 to 10 µM; in test [4], 0.1 to 1 µM; in test [5], below 0.1 µM; in test [6], below 0.1 µM.
As for `C[C@H](NC(=O)c1c(N)nn2cccnc12)c1cc2cccc(Cl)c2c(=O)n1CC(O)CO` (stereo partly drawn) [Compound 238], the concentration for half-maximal inhibition (IC50) was 1 to 10 µM in test [1]; below 0.1 µM in test [2]; 0.1 to 1 µM in test [3]; 0.1 to 1 µM in test [4]; below 0.1 µM in test [5]; below 0.1 µM in test [6].
For the molecule `C[C@H](NC(=O)c1c(N)nn2cccnc12)c1cc2cccc(-c3cncs3)c2c(=O)n1-c1ccccc1` [Compound 245], the IC50 was 1 to 10 µM in test [1]; above 10 µM in test [2]; 1 to 10 µM in test [3]; 0.1 to 1 µM in test [4]; below 0.1 µM in test [5]; below 0.1 µM in test [6].
For `COc1cc(-c2cccc3cc([C@H](C)NC(=O)c4c(N)nn5cccnc45)n(C)c(=O)c23)ccn1` [Compound 220], the IC50 in test [1] was 1 to 10 µM; in test [2], above 10 µM; in test [3], 1 to 10 µM; in test [4], 1 to 10 µM; in test [5] it was below 0.1 µM; in test [6] it was below 0.1 µM.
For the molecule `CC(C)c1ccn2nc(N)c(C(=O)N[C@@H](C)c3cc4cccc(Cl)c4c(=O)n3-c3ccccc3)c2n1` [Compound 178], the IC50 in test [1] was above 10 µM; in test [2], 1 to 10 µM; in test [3], 1 to 10 µM; in test [4], 1 to 10 µM; in test [5] it was below 0.1 µM; in test [6] it was 0.1 to 1 µM.
As to `C[C@H](NC(=O)c1nc(-c2cccc(S(=O)(=O)NC3CC3)c2)cnc1N)c1cc2cccc(Cl)c2c(=O)n1-c1ccccc1` [Compound 96], the IC50 in test [1] was above 10 µM; in test [2], 1 to 10 µM; in test [3], 1 to 10 µM; in test [4], 1 to 10 µM; in test [5], below 0.1 µM; in test [6] it was below 0.1 µM.
`C[C@H](NC(=O)c1nc(-c2cnn(C)c2)cnc1N)c1cc2cccc(Cl)c2c(=O)n1-c1ccccc1` [Compound 109]: the IC50 was 1 to 10 µM in test [1]; 1 to 10 µM in test [2]; above 10 µM in test [3]; 1 to 10 µM in test [4]; below 0.1 µM in test [5]; 0.1 to 1 µM in test [6].
For `C[C@H](NC(=O)c1c(N)nn2cccnc12)c1cc2cccc(Cl)c2c(=O)n1CCN(C)C` [Compound 242], the IC50 was above 10 µM in test [1]; below 0.1 µM in test [2]; below 0.1 µM in test [3]; 1 to 10 µM in test [4]; 0.1 to 1 µM in test [5]; below 0.1 µM in test [6].
On to `C[C@H](NC(=O)c1c(N)nn2cccnc12)c1cc2cccc(-c3ccc(=O)n(C)c3)c2c(=O)n1-c1ccccc1` [Compound 121], for which the half-maximal inhibitory concentration (IC50) in test [1] was above 10 µM; in test [2], above 10 µM; in test [3] it was 0.1 to 1 µM; in test [4], below 0.1 µM; in test [5] it was below 0.1 µM; in test [6] it was below 0.1 µM.
For the molecule `C[C@H](NC(=O)c1nc(-c2cccc(S(=O)(=O)NC3CC3)c2)cnc1N)c1cc2cccc(Cl)c2c(=O)n1C` [Compound 194], the IC50 is 0.1 to 1 µM in test [1]; below 0.1 µM in test [2]; 0.1 to 1 µM in test [3]; below 0.1 µM in test [4]; below 0.1 µM in test [5]; below 0.1 µM in test [6].
`CC(C)n1c([C@H](C)NC(=O)c2c(N)nn3cccnc23)cc2cccc(Cl)c2c1=O` [Compound 73]: the IC50 was 1 to 10 µM in test [1]; 0.1 to 1 µM in test [2]; 1 to 10 µM in test [3]; 0.1 to 1 µM in test [4]; below 0.1 µM in test [5]; below 0.1 µM in test [6].
For the molecule `C[C@H](NC(=O)c1nc(-c2cccc(NS(C)(=O)=O)c2)c(N)nc1N)c1cc2cccc(Cl)c2c(=O)n1-c1ccccc1` [Compound 169], the IC50 in test [1] is below 0.1 µM; in test [2], below 0.1 µM; in test [3], 0.1 to 1 µM; in test [4], below 0.1 µM; in test [5], below 0.1 µM; in test [6], below 0.1 µM.
Turning to `C[C@H](NC(=O)c1c(N)nn2cccnc12)c1c(C#N)c2cccc(F)c2c(=O)n1-c1ccccc1` [Compound 269], the concentration for half-maximal inhibition (IC50) is 1 to 10 µM in test [1]; 0.1 to 1 µM in test [2]; 0.1 to 1 µM in test [3]; 0.1 to 1 µM in test [4]; below 0.1 µM in test [5]; below 0.1 µM in test [6].
As to `COc1cc(-c2cccc3cc([C@H](C)NC(=O)c4c(N)ncc5cccnc45)n(-c4ccccc4)c(=O)c23)ccn1` [Compound 140], the IC50 in test [1] is 1 to 10 µM; in test [2] it was above 10 µM; in test [3], 0.1 to 1 µM; in test [4], below 0.1 µM; in test [5], below 0.1 µM; in test [6], below 0.1 µM.
